Read-outs that look alike come from different tables or passages of the source.
Columns and labels:
[1] = system: HePG2, MCF-7, Hela, PC3 cell lines; assay: Antitumor screening using MTT assay, statements across several cell lines; type: cell-based, human; conditions: for IC50: Homo sapiens, Hela and PC3, one range for 9 and 10 together, read-out: IC50 values range against Hela and PC3 cell line
Excerpt: (§2) Hepatocellular carcinoma (HePG2), mammary gland breast cancer (MCF-7), epithelioid carcinoma cervix cancer (Hela), and human prostate cancer were included on the panel (PC3). […] The cell lines were obtained from the American Type Culture Collection (ATCC) through VACSERA, a Cairo-based holding firm for biological goods and vaccines.
(§3) The panel consisted of hepatocellular carcinoma (HePG2), mammary gland breast cancer (MCF-7), epithelioid carcinoma cervix cancer (Hela) and human prostate cancer (PC3). Human lung fibroblast (WI38) was used to assay the cytotoxicity effect on normal cell. The cell lines were obtained from ATCC via Holding company for biological products and vaccines (VACSERA), Cairo, Egypt. The cytotoxic activity was defined as the concentration of the compound that causes 50% growth inhibition compared with the growth of untreated cells.

[2] = system: human prostate cancer (PC3); assay: Antitumor screening using MTT assay; conditions: Homo sapiens; for viability at 1.56 µM / viability at 3.125 µM / viability at 6.25 µM / viability at 12.5 µM / viability at 25 µM / viability at 50 µM / viability at 100 µM: read-out: Average of Relative viability of cells (%); for IC50: read-out: In-vitro cytotoxicity IC50 (µM) PC3
Excerpt: as §2, §3

[3] = system: Hepatocellular carcinoma (HePG2); assay: Antitumor screening using MTT assay; type: cell-based, human; conditions: Homo sapiens; for viability at 1.56 µM: Conc. 1.56 µM; for viability at 1.56 µM / viability at 3.125 µM / viability at 6.25 µM / viability at 12.5 µM / viability at 25 µM / viability at 50 µM / viability at 100 µM: read-out: Average of Relative viability of cells (%); for viability at 3.125 µM: Conc. 3.125 µM; for viability at 6.25 µM: Conc. 6.25 µM; for viability at 12.5 µM: Conc. 12.5 µM; for viability at 25 µM: Conc. 25 µM; for viability at 50 µM: Conc. 50 µM; for viability at 100 µM: Conc. 100 µM; for IC50: mean ± SD, n = 3, read-out: In-vitro cytotoxicity IC50 (µM) HePG2
Excerpt: as §2, §3

[4] = system: epithelioid carcinoma cervix cancer (Hela); assay: Antitumor screening using MTT assay; conditions: Homo sapiens, HeLa; for viability at 1.56 µM / viability at 3.125 µM / viability at 6.25 µM / viability at 12.5 µM / viability at 25 µM / viability at 50 µM / viability at 100 µM: read-out: Average of Relative viability of cells (%); for IC50: read-out: In-vitro cytotoxicity IC50 (µM) Hela
Excerpt: as §2, §3

[5] = system: human lung fibroblast (WI38); assay: In vitro cytotoxicity against human normal cell line (MTT); type: cell-based; conditions: Homo sapiens, WI-38, human normal cell line WI38; mean ± SD, n = 3
Excerpt: (§1) The anticancer agent's selectivity for cancer cells is a critical consideration for any researcher, as it can decrease the molecule's adverse effects on normal human cells.

[6] = as above; type: cell-based; conditions: human, WI38, read-out: Average of Relative viability of cells (%); for viability at 3.125 µM: Conc. 3.125 µM; for viability at 1.56 µM: Conc. 1.56 µM; for viability at 6.25 µM: Conc. 6.25 µM; for viability at 12.5 µM: Conc. 12.5 µM; for viability at 25 µM: Conc. 25 µM; for viability at 50 µM: Conc. 50 µM; for viability at 100 µM: Conc. 100 µM
Excerpt: as §1

[7] = system: mammary gland breast cancer (MCF-7); assay: Antitumor screening using MTT assay; conditions: Homo sapiens; for viability at 1.56 µM / viability at 3.125 µM / viability at 6.25 µM / viability at 12.5 µM / viability at 25 µM / viability at 50 µM / viability at 100 µM: MCF7, read-out: Average of Relative viability of cells (%); for IC50: MCF7, read-out: In-vitro cytotoxicity IC50 (µM) MCF-7
Excerpt: as §2, §3

[8] = WI38 human lung fibroblast cells (normal cell line)
[9] = WI38 normal lung fibroblast cells

For `COc1ccc(/C=N/N=C(\C)c2cc3ccccc3o2)cc1OC` [Compound 9, (E)-1-[1-(benzofuran-2-yl)ethylidene]-2-((E)-3,4-dimethoxybenzylidene)hydrazine], the melting point was 130 to 132 °C, the IC50 [1] was 13.8 to 32.1 µM and the viability at 1.56 µM [2] was 100%. It also gave a viability at 3.125 µM [2] of 96.1%, a viability at 6.25 µM [2] of 75.8% and a viability at 12.5 µM [2] of 60.2%. For the same compound, the viability at 25 µM [2] was 52.6%, the viability at 50 µM [2] was 44.8% and the viability at 100 µM [2] was 31.2%. For the same compound, the IC50 [2] was 32.1 ± 2.2 µM, the viability at 1.56 µM [3] was 100% and the viability at 3.125 µM [3] was 94.4%. The viability at 6.25 µM [3] was 78.2%, the viability at 12.5 µM [3] was 60.5% and the viability at 25 µM [3] was 49.6%. The viability at 50 µM [3] was 36.8%, the viability at 100 µM [3] was 26.2% and the IC50 [3] was 26.4 ± 2.1 µM. For the same compound, the viability at 1.56 µM [4] was 100%, the viability at 3.125 µM [4] was 92% and the viability at 6.25 µM [4] was 73.2%. For the same compound, the viability at 12.5 µM [4] was 50.4%, the viability at 25 µM [4] was 37.1% and the viability at 50 µM [4] was 28.2%. It also gave a viability at 100 µM [4] of 20.3%, an IC50 [4] of 17 ± 1.4 µM and an IC50 [5] of 82.3 ± 4.3 µM. The viability at 3.125 µM [6, 8] was 100%, the viability at 1.56 µM [6, 9] was 100% and the viability at 6.25 µM [6, 9] was 99.7%. The viability at 12.5 µM [6, 9] was 85.2%, the viability at 25 µM [6, 9] was 74.5% and the viability at 50 µM [6, 9] was 60.6%. It also gave a viability at 100 µM [6, 9] of 47.9%, a viability at 1.56 µM [7] of 100% and a viability at 3.125 µM [7] of 96%. For the same compound, the viability at 6.25 µM [7] was 79.5%, the viability at 12.5 µM [7] was 64.2% and the viability at 25 µM [7] was 50.6%. It also gave a viability at 50 µM [7] of 38.2%, a viability at 100 µM [7] of 25.3% and an IC50 [7] of 28.1 ± 2.3 µM.
`COc1ccccc1/C=N/N=C(\C)c1cc2ccccc2o1` [Compound 10, (E)-1-[1-(benzofuran-2-yl)ethylidene]-2-((E)-2-methoxybenzylidene)hydrazine] showed a melting point of 154 to 156 °C, an IC50 [1] of 13.8 to 32.1 µM and a viability at 1.56 µM [2] of 100%. It also gave a viability at 3.125 µM [2] of 96.3%, a viability at 6.25 µM [2] of 78.2% and a viability at 12.5 µM [2] of 59.1%. For the same compound, the viability at 25 µM [2] was 46.8%, the viability at 50 µM [2] was 37% and the viability at 100 µM [2] was 23.5%. For the same compound, the IC50 [2] was 24.8 ± 1.9 µM, the viability at 1.56 µM [3] was 100% and the viability at 3.125 µM [3] was 100%. It also gave a viability at 6.25 µM [3] of 91.9%, a viability at 12.5 µM [3] of 72.7% and a viability at 25 µM [3] of 63.1%. For the same compound, the viability at 50 µM [3] was 50.2%, the viability at 100 µM [3] was 38.1% and the IC50 [3] was 51 ± 3 µM. For the same compound, the viability at 1.56 µM [4] was 100%, the viability at 3.125 µM [4] was 85.9% and the viability at 6.25 µM [4] was 63.5%. It also gave a viability at 12.5 µM [4] of 48.1%, a viability at 25 µM [4] of 33.7% and a viability at 50 µM [4] of 25.8%. It also gave a viability at 100 µM [4] of 17%, an IC50 [4] of 13.8 ± 1 µM and an IC50 [5] of 67.7 ± 3.4 µM. It also gave a viability at 3.125 µM [6, 8] of 100%, a viability at 1.56 µM [6, 9] of 100% and a viability at 6.25 µM [6, 9] of 100%. For the same compound, the viability at 12.5 µM [6, 9] was 93.6%, the viability at 25 µM [6, 9] was 71.7% and the viability at 50 µM [6, 9] was 54.8%. The viability at 100 µM [6, 9] was 43.3%, the viability at 1.56 µM [7] was 100% and the viability at 3.125 µM [7] was 100%. It also gave a viability at 6.25 µM [7] of 94.7%, a viability at 12.5 µM [7] of 79.3% and a viability at 25 µM [7] of 65.2%. For the same compound, the viability at 50 µM [7] was 58%, the viability at 100 µM [7] was 40.4% and the IC50 [7] was 62.8 ± 3.3 µM.
For `C/C(=N\NC(=O)Nc1ccc(Cl)cc1)c1cc2ccccc2o1` [Compound 7, (E)-2-[1-(benzofuran-2-yl)ethylidene]-N-(4-chlorophenyl)hydrazine-1-carboxamide], the melting point was 235 to 237 °C, the “anticancer activity towards the four / all assessed cell lines (grade)” value ([1]; HePG2, MCF-7, Hela, PC3) was “weak (51–100 (weak))” and the viability at 1.56 µM [2] was 100%. For the same compound, the viability at 3.125 µM [2] was 100%, the viability at 6.25 µM [2] was 100% and the viability at 12.5 µM [2] was 93.6%. The viability at 25 µM [2] was 76.5%, the viability at 50 µM [2] was 64.8% and the viability at 100 µM [2] was 50.9%. For the same compound, the IC50 [2] was 93.9 ± 4.7 µM, the viability at 1.56 µM [3] was 100% and the viability at 3.125 µM [3] was 100%. It also gave a viability at 6.25 µM [3] of 99.7%, a viability at 12.5 µM [3] of 87.4% and a viability at 25 µM [3] of 72.5%. The viability at 50 µM [3] was 60.2%, the viability at 100 µM [3] was 48.1% and the IC50 [3] was 81.6 ± 3.9 µM. It also gave a viability at 1.56 µM [4] of 100%, a viability at 3.125 µM [4] of 100% and a viability at 6.25 µM [4] of 93.8%. The viability at 12.5 µM [4] was 80.7%, the viability at 25 µM [4] was 68.4% and the viability at 50 µM [4] was 56.3%. The viability at 100 µM [4] was 42.9%, the IC50 [4] was 66 ± 3.2 µM and the IC50 [5] was over 100 µM. For the same compound, the viability at 1.56 µM [6, 8] was 100%, the viability at 3.125 µM [6, 8] was 100% and the viability at 6.25 µM [6, 8] was 100%. It also gave a viability at 12.5 µM [6, 8] of 100%, a viability at 25 µM [6, 8] of 89.3% and a viability at 50 µM [6, 8] of 76.2%. For the same compound, the viability at 100 µM [6, 8] was 55.5%, the viability at 1.56 µM [7] was 100% and the viability at 3.125 µM [7] was 100%. The viability at 6.25 µM [7] was 97.6%, the viability at 12.5 µM [7] was 88.9% and the viability at 25 µM [7] was 70.2%. For the same compound, the viability at 50 µM [7] was 58%, the viability at 100 µM [7] was 47.8% and the IC50 [7] was 76.9 ± 3.8 µM.

From PMC9556824, “Design, synthesis and computational study of new benzofuran hybrids as dual PI3K/VEGFR2 inhibitors targeting cancer” (Scientific Reports, 2022)
